Here are results for ten compounds from DBAASP.

The structures appear in SMILES notation. Values after ≈ are worked out from the molar mass of the structure shown. Values joined by “and” are separate entries in the source; they are usually repeats but may differ in a detail not shown here. Identical values can stand only once.

Some test systems named below: Candida krusei ATCC 6258; Candida albicans SC5314; Candida glabrata 090902.
What all share (assay): ≥ marks a high value that may be exact or a test limit, other limits are often not marked, values filed in µg/mL are converted to µM
Assay [1] concerns Klebsiella pneumoniae ATCC 700603.
The subject of assay [2] is Candida albicans ATCC 90028.
Assay [3] deals with Enterobacter cloacae ATCC 13047.
Assay [4] concerns Candida parapsilosis ATCC 22019.
Assay [5] relates to Staphylococcus aureus ATCC 29213.
For assay [6], the system named is Escherichia coli ATCC 25922.
In assay [7] the test system is Staphylococcus aureus ATCC 33591.
For assay [8], the system named is Pseudomonas aeruginosa ATCC 27853.
For assay [9], the system named is Staphylococcus aureus ATCC 700699.
In assay [10] the test system is Staphylococcus aureus ATCC 9144.
In assay [11] the test system is Escherichia coli DH5alpha.
Assay [12] has as its system Escherichia coli ATCC 10536.
Assay [13] deals with Bacillus subtilis ATCC 6633.
Assay [14] has as its system Enterococcus faecalis 981.
Assay [15] relates to Nocardia asteroides 201118.
The subject of assay [16] is Staphylococcus aureus ATCC 25923.
In assay [17] the test system is Candida albicans ATCC 36232.
The test system of assay [18] is Micrococcus luteus ATCC 9341.
Assay [19] deals with Escherichia coli ATCC 2592.
For assay [20], the system named is Pseudomonas aeruginosa ATCC 9027.

On to `CC[C@H](C)[C@H](NC(=O)[C@H](C)NC(=O)[C@H](CCCCN)NC(=O)[C@@H](NC(=O)[C@@H](NC(=O)[C@@H](N)C(C)C)[C@@H](C)CC)C(C)C)C(=O)N[C@@H](C)C(=O)N[C@H](C(=O)N[C@@H](CC(C)C)C(=O)N[C@@H](C)C(=O)N[C@@H](CO)C(=O)N[C@@H](CCCCN)C(=O)N[C@@H](CC(C)C)C(=O)N[C@@H](CC(C)C)C(=O)O)[C@@H](C)O` [VIVKAIATLASKLL], for which the figures for the MIC in assay [1], in assay [2] and in assay [3] were 55.6 µM (≈ 80 µg/mL), 27.8 µM (≈ 40 µg/mL) and at least 55.6 µM, respectively.
Take `CC[C@H](C)[C@H](NC(=O)[C@@H](NC(=O)CN)C(C)C)C(=O)N[C@@H](CCCCN)C(=O)N[C@@H](C)C(=O)N[C@@H](C)C(=O)N[C@@H](CCCCN)C(=O)N[C@@H](CCCCN)C(=O)N[C@H](C(=O)N[C@H](C(=O)N[C@@H](CCCCN)C(=O)N[C@H](C(=O)N[C@@H](CC(C)C)C(=O)N[C@@H](CCCCN)C(=O)N[C@@H](CC(N)=O)C(=O)N[C@@H](CC(C)C)C(=O)N[C@@H](Cc1ccccc1)C(N)=O)C(C)C)C(C)C)C(C)C` [GVIKAAKKVVKVLKNLF]: the minimal inhibitory concentration (MIC) (usually the lowest concentration found to suppress growth) was at least 34.5 µM in assay [2], 17.2 µM (≈ 32 µg/mL) with Candida krusei ATCC 6258, 17.2 µM (≈ 32 µg/mL) in assay [4] and 17.2 µM (≈ 32 µg/mL) in the assay on Candida albicans SC5314.
In the case of `CC[C@H](C)[C@H](NC(=O)[C@H](C)NC(=O)[C@H](CCCCN)NC(=O)[C@H](C)NC(=O)[C@H](C)NC(=O)CNC(=O)[C@H](CCCCN)NC(=O)[C@H](CC(C)C)NC(=O)[C@@H](NC(=O)[C@H](CC(=O)O)NC(=O)[C@@H](NC(=O)[C@@H](NC(=O)CN)C(C)C)C(C)C)[C@@H](C)CC)C(=O)N[C@@H](C)C(=O)NCC(=O)N[C@@H](Cc1cnc[nH]1)C(=O)N[C@@H](CC(C)C)C(=O)N[C@@H](C)C(=O)N[C@@H](CO)C(=O)N[C@@H](CCCCN)C(=O)N[C@H](C(=O)N[C@@H](CCSC)C(=O)N[C@@H](CC(N)=O)C(=O)N[C@@H](CCCCN)C(=O)N[C@@H](CC(C)C)C(N)=O)C(C)C` [GVVDILKGAAKAIAGHLASKVMNKL], the minimal inhibitory concentration (MIC) in [5] was 100 µM (≈ 250 µg/mL); in assay [1], 25 µM (≈ 62.6 µg/mL); in assay [6], 3.12 µM (≈ 7.81 µg/mL); in assay [7] it was 25 µM (≈ 62.6 µg/mL); in [8] it was 50 µM (≈ 125 µg/mL); in [9] it was at least 50 µM.
As for `CC[C@H](C)[C@H](NC(=O)[C@H](CC(=O)O)NC(=O)[C@H](CCCCN)NC(=O)[C@H](C)NC(=O)[C@H](C)NC(=O)CNC(=O)[C@H](CCCCN)NC(=O)[C@H](CC(C)C)NC(=O)[C@@H](NC(=O)[C@H](CC(=O)O)NC(=O)[C@@H](NC(=O)[C@@H](NC(=O)[C@H](C)N)C(C)C)C(C)C)[C@@H](C)CC)C(=O)N[C@@H](C)C(=O)NCC(=O)N[C@@H](Cc1cnc[nH]1)C(=O)N[C@@H](CC(C)C)C(=O)N[C@@H](C)C(=O)N[C@@H](CO)C(=O)N[C@@H](CCCCN)C(=O)N[C@H](C(=O)N[C@@H](CCSC)C(=O)N[C@@H](CC(N)=O)C(=O)N[C@@H](CCCCN)C(=O)N[C@@H](CC(C)C)C(N)=O)C(C)C` [AVVDILKGAAKDIAGHLASKVMNKL], the minimal inhibitory concentration (MIC) was over 100 µM in assay [5]; over 100 µM in assay [1]; over 100 µM in assay [6]; at least 100 µM in assay [7]; over 100 µM in assay [8]; at least 100 µM in assay [9].
For the compound `CC[C@H](C)[C@H](NC(=O)[C@H](CCCN=C(N)N)NC(=O)[C@@H](NC(=O)[C@@H](NC(=O)[C@@H]1CCCN1C(=O)[C@@H](NC(=O)[C@@H](NC(=O)[C@@H](NC(=O)[C@@H]1CCCN1C(=O)CNC(=O)[C@H](Cc1ccc(O)cc1)NC(=O)[C@H](CCCCN)NC(=O)[C@H](CCCCN)NC(=O)[C@H](Cc1c[nH]c2ccccc12)NC(=O)[C@H](C)NC(=O)[C@H](CCCN=C(N)N)NC(=O)[C@H](CC(C)C)NC(=O)[C@H](C)NC(=O)[C@H](CCCCN)NC(=O)[C@H](CCCN=C(N)N)NC(=O)CNC(=O)[C@H](CC(C)C)NC(=O)[C@H](CO)NC(=O)[C@H](CCCN=C(N)N)NC(=O)[C@H](CC(C)C)NC(=O)CNC(=O)CN)[C@@H](C)CC)[C@@H](C)CC)C(C)C)[C@@H](C)CC)[C@@H](C)CC)C(N)=O` [GGLRSLGRKALRAWKKYGPIIVPIIRI], the MIC in [10] was 3.2 µM (≈ 9.7 µg/mL); in assay [11], 2.6 µM (≈ 7.88 µg/mL); in assay [12] it was 2.3 µM (≈ 6.97 µg/mL); in [13] it was 1.5 µM (≈ 4.55 µg/mL).
For the compound `CC[C@H](C)[C@H](NC(=O)[C@@H](NC(=O)[C@@H]1CCCN1C(=O)[C@H](CO)NC(=O)[C@H](CC(C)C)NC(=O)[C@H](CCCCN)NC(=O)[C@H](CCCCN)NC(=O)[C@H](Cc1ccccc1)NC(=O)[C@H](CC(C)C)NC(=O)[C@H](CCCCN)NC(=O)[C@H](CCCCN)NC(=O)[C@H](C)NC(=O)[C@H](CCCCN)NC(=O)[C@H](CCCCN)NC(=O)[C@H](CCCN=C(N)N)NC(=O)[C@H](Cc1ccccc1)NC(=O)[C@H](CCCN=C(N)N)NC(=O)[C@H](CCCCN)NC(=O)[C@H](Cc1ccccc1)NC(=O)[C@H](CCCN=C(N)N)NC(=O)CN)C(C)C)C(=O)N1CCC[C@H]1C(=O)N[C@@H](CC(C)C)C(=O)N[C@@H](CC(C)C)C(=O)N[C@@H](Cc1cnc[nH]1)C(=O)N[C@@H](CC(C)C)C(N)=O` [GRFKRFRKKAKKLFKKLSPVIPLLHL], the MIC in [10] was 2.8 µM (≈ 8.82 µg/mL); in assay [11], 2.9 µM (≈ 9.13 µg/mL); in assay [12] it was 3.2 µM and 7.4 µM.
Consider `CC[C@H](C)[C@H](NC(=O)[C@H](CC(=O)O)NC(=O)[C@H](CCCCN)NC(=O)[C@H](C)NC(=O)[C@H](C)NC(=O)CNC(=O)[C@H](CCCCN)NC(=O)[C@H](CC(C)C)NC(=O)[C@@H](NC(=O)[C@H](CC(=O)O)NC(=O)[C@@H](NC(=O)[C@@H](NC(=O)CN)C(C)C)C(C)C)[C@@H](C)CC)C(=O)N[C@@H](C)C(=O)NCC(=O)N[C@@H](Cc1cnc[nH]1)C(=O)N[C@@H](CC(C)C)C(=O)N[C@@H](C)C(=O)N[C@@H](C)C(=O)N[C@@H](CCCCN)C(=O)N[C@H](C(=O)N[C@@H](CCSC)C(=O)N[C@@H](CC(N)=O)C(=O)N[C@@H](CCCCN)C(=O)N[C@@H](CC(C)C)C(N)=O)C(C)C` [GVVDILKGAAKDIAGHLAAKVMNKL], for which the minimal inhibitory concentration (MIC) in assay [5] was over 100 µM; in assay [1], 100 µM (≈ 253 µg/mL); in assay [6] it was 25 µM (≈ 63.3 µg/mL); in assay [7], at least 100 µM; in [8], 100 µM (≈ 253 µg/mL); in assay [9], at least 100 µM.
As to `CC(C)C[C@H](NC(=O)[C@H](CC(C)C)NC(=O)CNC(=O)[C@H](CO)NC(=O)[C@H](CC(C)C)NC(=O)[C@H](CC(C)C)NC(=O)[C@H](CCCCN)NC(=O)CNC(=O)[C@@H](NC(=O)[C@H](Cc1ccccc1)NC(=O)[C@@H]1CCCN1C(=O)[C@H](CC(C)C)NC(=O)[C@@H](N)Cc1ccccc1)C(C)C)C(N)=O` [FLPFVGKLLSGLL], the minimum inhibitory concentration (MIC) in assay [14] was 25 µM (≈ 35.1 µg/mL); against Candida glabrata 090902 it was at least 100 µM; in assay [15], 12.5 µM (≈ 17.5 µg/mL); in assay [16] it was 12.5 µM (≈ 17.5 µg/mL).
Turning to `CC(C)C[C@H](NC(=O)[C@H](CS)NC(=O)[C@H](Cc1cnc[nH]1)NC(=O)[C@H](C)NC(=O)[C@H](C)NC(=O)[C@H](CS)NC(=O)[C@H](C)NC(=O)[C@H](C)NC(=O)[C@@H](N)CCCCN)C(=O)N[C@@H](Cc1c[nH]c2ccccc12)C(=O)N[C@@H](CCCN=C(N)N)C(N)=O` [KAACAAHCLWR], the minimal inhibitory concentration (MIC) in assay [17] was at least 163 µM; in [18], at least 163 µM; in assay [19], at least 163 µM; in assay [20], over 163 µM.
For `CC[C@H](C)[C@H](NC(=O)[C@@H](NC(=O)[C@@H]1CCCN1C(=O)[C@H](CO)NC(=O)[C@H](CC(C)C)NC(=O)[C@H](CCCCN)NC(=O)[C@H](CCCCN)NC(=O)[C@H](Cc1ccccc1)NC(=O)[C@H](CC(C)C)NC(=O)[C@H](CCCCN)NC(=O)[C@H](CCCCN)NC(=O)[C@H](C)NC(=O)[C@H](CCCCN)NC(=O)[C@H](CCCCN)NC(=O)[C@H](CCCN=C(N)N)NC(=O)[C@H](Cc1ccccc1)NC(=O)[C@H](CCCN=C(N)N)NC(=O)[C@H](CCCCN)NC(=O)[C@H](C)NC(=O)[C@H](CCCN=C(N)N)NC(=O)CN)C(C)C)C(=O)N1CCC[C@H]1C(=O)N[C@@H](CC(C)C)C(=O)N[C@@H](CC(C)C)C(=O)N[C@@H](Cc1cnc[nH]1)C(=O)N[C@@H](CC(C)C)C(N)=O` [GRAKRFRKKAKKLFKKLSPVIPLLHL], the MIC in assay [10] was 2.7 µM (≈ 8.3 µg/mL); in assay [11] it was 2.9 µM (≈ 8.91 µg/mL); in assay [12] it was 2.9 µM and 7.3 µM.
